The data set can be described thus: Pharmacokinetic evaluation in rats. It is filed as in vivo. Particulars: rat, plasma, SD male rats. As for the experimental part: Purpose: The test animals were SD male rats. The LC-MS/MS method was used to quantitatively determine the drug concentration in the plasma of rats at different time points after intravenous injection or oral administration of the test compound to evaluate the pharmacokinetic characteristics of the test drug in rats.
SD rats (male, 160-300 g, 5-10 weeks old, Shanghai Xipu-Bikai Experimental Animal Co., Ltd.)
The clear solution of the test compound was injected into SD rats via the tail vein (without fasting) (vehicle: 5% DMSO/10% Solutol/85% Saline), and the clear solution of the test compound was administered to SD rats by gavage (fasting for 10-14 h, free access to water) (vehicle: 5% DMSO/10% Solutol/85% Saline). For intravenous administration, blood was collected from the jugular vein at 0.033, 0.083, 0.25, 0.5, 1, 2, 4, 8, and 24 hrs after administration, placed in an EDTA-K2 anticoagulant tube (Jiangsu Kangjian Medical Supplies Co., Ltd.), mixed, and centrifuged at 2-8° C., 6800 g for 6 minutes to obtain plasma; for oral gavage administration, blood was collected from the jugular vein at 0.083, 0.25, 0.5, 1, 2, 4, 6, 8, and 24 hrs after administration, placed in an EDTA-K2 anticoagulant tube (Jiangsu Kangjian Medical Supplies Co., Ltd.), mixed, and centrifuged at 2-8° C., 6800 g for 6 minutes to obtain plasma. The plasma concentration was determined by LC-MS/MS, and the relevant pharmacokinetic parameters were calculated by the non-compartmental linear logarithmic trapezoidal method using Phoenix WinNonlinTM Version 7.0 (Pharsight, USA) pharmacokinetic software. The compounds of the present disclosure have good pharmacokinetic characteristics in rats.

Here are results for 1 compound from patent publication US20260234150A1, “COMPOUND FOR INHIBITING NLRP3, PREPARATION METHOD, AND USE” (DOVETREE MEDICINES UNUS, INC., priority 2023, published 2026).

Like-named read-outs stand apart in the source and are kept apart here.

As usually defined, the Cmax is the maximum level reached in the sampled fluid or tissue. Usually bioavailability stands for dose-corrected exposure relative to a reference, in per cent. A low value points to poor availability.

Under “1 mg/kg, Dosage IV/PO 1/3 mg/kg”, `CC(=O)N1CCOC[C@H]1CNc1nc2nc(-c3c(C)cc(C(F)(F)F)cc3O)ccc2o1` [Compound 111] displayed a clearance of 5.78 mL/min/kg. Besides, the Vd (1 mg/kg, Dosage IV/PO 1/3 mg/kg, read-out: Vdss) is 1.02 L/kg. The peak level (Dosage IV/PO 1/3 mg/kg) (Cmax) was 1390 ng/mL. Under “Dosage IV/PO 1/3 mg/kg”, this compound came in with a bioavailability of 94%. Moreover, the AUC(0-t) (IV 1 mg/kg, read-out: AUC0-last IV) was 2880 ng·h/mL and the AUC(0-t) (PO 3 mg/kg, read-out: AUC0-last PO) was 8120 ng·h/mL. Also, the half-life (IV 1 mg/kg, read-out: T1/2 (IV, h) (converted)) was 3.36 h.
